Source: patent publication US20250282768A1 (Janssen Pharmaceutica NV, priority 2022, published 2025)

System: p-IKKa levels in L363 (NIK translocated multiple myeloma) cells
Assay: Assay 2: Effect of compounds on p-IKKa levels in L363 (NIK translocated multiple myeloma) cells
Assay type: cell-based
Settings: Homo sapiens, L-363, 6 h, read-out: Assay 2 IC50 (nM), p-IKKa (Ser 176/180) in BAFF stimulated L363 cells with MG132, 6 h; average if tested more than once
Protocol: Assay 2: Effect of Compounds on p-IKKa Levels in L363 (NIK Translocated Multiple Myeloma) Cells
All compounds tested were dissolved and serially diluted in DMSO, 1:3 dilution for 11 points in an Echo compatible plate. 100% DMSO was added to columns 12 and 24 of the plate to serve as high and low signal controls. This compound plate was used to spot 20 nL of compound or DMSO into a Greiner 384 well TC plate (781080). The final DMSO concentration was 0.3% (v/v) in cell assays. Human L363 cells (ATCC) were cultured in RPM11640 medium supplemented with GlutaMax, non-essential amino acids, sodium pyruvate and 10% fetal bovine serum. Cells were routinely maintained at densities of 0.2×10^6 cells per ml—2×10^6 cells per mL at 37° C. in a humidified 5% CO2 atmosphere incubator. Cells were passaged twice a week splitting back to obtain the low density. The day before the assay, cells were washed twice in HBSS (Hank's Balanced Salt Solution), resuspended in Dulbecco's Modified Eagle Medium (DMEM)+0.5% IgG and protease free BSA (Jackson Immuno Research Laboratories), +/−250 ng/ml recombinant human B-cell activating factor (BAFF/BLyS/TNFSF13B) and incubated overnight at 37° C. in a humidified 5% CO2 atmosphere (bulk stimulation with or without BAFF). The next day, the cell concentration was adjusted to 1×10^7 cells/ml in DMEM+/−250 ng/ml BAFF +/−10 μM MG132 and plated at 10 μl/well into compound or DMSO spotted 384 well TC plates. Seeded cells were incubated at 37° C. in a humidified 5% CO2 atmosphere for 6 h. After 6 h, the plates were removed from the incubator and cell lysis was achieved by the addition of 2.5 μl 5×lysis buffer containing protease and phosphatase inhibitors, followed by shaking on a plate shaker at room temperature for 15 min. At the end of this incubation, lysed cells were sequentially treated and incubated with acceptor and donor bead mixes according to the manufacturer's protocol for a 1 plate/2-incubation suspension cell assay (AlphaLISA SureFire Ultra p-IKKa (Ser 176/180) Assay Kit (Perkin Elmer). Plates were read using an EnVision Multilabel Plate Reader (Perkin Elmer). Within an experiment, a concentration response curve for each compound was run in duplicate. The signal obtained in the test wells was normalized using high signal (BAFF stimulated cells, DMSO, MG132) and low signal (unstimulated cells, DMSO) controls. To determine the IC50, a sigmoidal curve was fitted to the plot of % inhibition versus Log10 compound concentration.

Row | Structure (SMILES) | IC50 [nM]
1 | CN1CC[C@@](O)(c2cc(-c3cccc(-c4ccnc(NCCC(F)F)n4)n3)no2)C1=O [Example 359, (R)-3-(3-(6-(2-((3,3-Difluoropropyl)amino)pyrimidin-4-yl)pyridin-2-yl)isoxazol-5-yl)-3-hydroxy-1-methylpyrrolidin-2-one] | 50 to 500
2 | CC(Nc1nccc(-c2cccc(-c3cc([C@]4(O)CCN(C)C4=O)on3)n2)n1)c1ncco1 (stereo partly drawn) [Example 371, (3R)-3-Hydroxy-1-methyl-3-(3-(6-(2-((1-(oxazol-2-yl)ethyl)amino)pyrimidin-4-yl)pyridin-2-yl)isoxazol-5-yl)pyrrolidin-2-one] | 50 to 500
3 | CCC(Nc1nccc(-c2cccc(-c3cc([C@]4(O)CCN(C)C4=O)on3)n2)n1)c1ccn(CC)n1 (stereo partly drawn) [Example 391, (3R)-3-(3-(6-(2-((1-(1-Ethyl-1H-pyrazol-3-yl)propyl)amino)pyrimidin-4-yl)pyridin-2-yl)isoxazol-5-yl)-3-hydroxy-1-methylpyrrolidin-2-one] | > 500
4 | CN1CC[C@](O)(c2nccn2-c2cccc(-c3ccnc(Nc4cnn(C)c4Cl)n3)n2)C1=O (single isomer, unassigned) [Example 106, (*S)-3-(1-(6-(2-((5-Chloro-1-methyl-1H-pyrazol-4-yl)amino)pyrimidin-4-yl)pyridin-2-yl)-1H-imidazol-2-yl)-3-hydroxy-1-methylpyrrolidin-2-one] | > 500
5 | CN1CC[C@@](O)(c2cc(-c3cccc(-c4ccnc(Nc5cnn6ccccc56)n4)n3)no2)C1=O [Example 53, (R)-3-Hydroxy-1-methyl-3-(3-(6-(2-(pyrazolo[1,5-a]pyridin-3-ylamino)pyrimidin-4-yl)pyridin-2-yl)isoxazol-5-yl)pyrrolidin-2-one] | < 50
6 | CN1CC[C@@](O)(c2cc(-c3cccc(-c4ccnc(Nc5cnn(C)c5C(F)(F)F)n4)n3)no2)C1=O (single isomer, unassigned) [Example 132, (*R)-3-Hydroxy-1-methyl-3-(3-(6-(2-((1-methyl-5-(trifluoromethyl)-1H-pyrazol-4-yl)amino)pyrimidin-4-yl)pyridin-2-yl)isoxazol-5-yl)pyrrolidin-2-one] | < 50
7 | CN1CC[C@@](O)(c2cc(-c3cccc(-c4ccnc(N[C@@H]5CCOC5)n4)n3)no2)C1=O [Example 460, (R)-3-Hydroxy-1-methyl-3-(3-(6-(2-(((R)-tetrahydrofuran-3-yl)amino)pyrimidin-4-yl)pyridin-2-yl)isoxazol-5-yl)pyrrolidin-2-one] | 50 to 500
8 | Cc1nn(CC(C)(C)O)cc1Nc1nccc(-c2cccc(-c3cc([C@]4(O)CCN(C)C4=O)on3)n2)n1 [Example 234, (R)-3-Hydroxy-3-(3-(6-(2-((1-(2-hydroxy-2-methylpropyl)-3-methyl-1H-pyrazol-4-yl)amino)pyrimidin-4-yl)pyridin-2-yl)isoxazol-5-yl)-1-methylpyrrolidin-2-one] | < 50
9 | CN1CC[C@@](O)(c2cc(-c3cccc(-c4ccnc(Nc5ccn(C)n5)n4)n3)on2)C1=O [Example 263, (R)-3-Hydroxy-1-methyl-3-(5-(6-(2-((1-methyl-1H-pyrazol-3-yl)amino)pyrimidin-4-yl)pyridin-2-yl)isoxazol-3-yl)pyrrolidin-2-one] | < 50
10 | C[C@H](Nc1nccc(-c2cccc(-n3cc([C@]4(O)CCN(C)C4=O)nn3)n2)n1)c1ncccn1 (single isomer, unassigned) [Example 143] | 50 to 500
11 | Cc1cc(Nc2nccc(-c3cccc(-c4cc([C@]5(O)CCN(C)C5=O)on4)n3)n2)n(CCO)n1 [Example 129, (R)-3-Hydroxy-3-(3-(6-(2-((1-(2-hydroxyethyl)-3-methyl-1H-pyrazol-5-yl)amino)pyrimidin-4-yl)pyridin-2-yl)isoxazol-5-yl)-1-methylpyrrolidin-2-one] | 50 to 500
12 | CN1CC[C@@](O)(c2cc(-c3cccc(-c4ccnc(NC5CCN(C6CC6)C5)n4)n3)no2)C1=O (mixture of isomers) [Example 448, (3R)-3-(3-(6-(2-((1-Cyclopropylpyrrolidin-3-yl)amino)pyrimidin-4-yl)pyridin-2-yl)isoxazol-5-yl)-3-hydroxy-1-methylpyrrolidin-2-one] | > 500
